Here are results for 59 molecules from ChEMBL document CHEMBL1811879, “Fragmental modeling of hPepT2 and analysis of its binding features by docking studies and pharmacophore mapping” (Bioorg Med Chem, 2011).

Where a SMILES comes first, the peptide text is derived from it. [ ]: non-standard residue; d: D form. Nle = CCCC[C@H](N)C(=O)O

The target in this experiment is T1, Solute carrier family 15 member 2 (Homo sapiens, UniProt Q16348).
T1 sequence (Q16348 whole entry): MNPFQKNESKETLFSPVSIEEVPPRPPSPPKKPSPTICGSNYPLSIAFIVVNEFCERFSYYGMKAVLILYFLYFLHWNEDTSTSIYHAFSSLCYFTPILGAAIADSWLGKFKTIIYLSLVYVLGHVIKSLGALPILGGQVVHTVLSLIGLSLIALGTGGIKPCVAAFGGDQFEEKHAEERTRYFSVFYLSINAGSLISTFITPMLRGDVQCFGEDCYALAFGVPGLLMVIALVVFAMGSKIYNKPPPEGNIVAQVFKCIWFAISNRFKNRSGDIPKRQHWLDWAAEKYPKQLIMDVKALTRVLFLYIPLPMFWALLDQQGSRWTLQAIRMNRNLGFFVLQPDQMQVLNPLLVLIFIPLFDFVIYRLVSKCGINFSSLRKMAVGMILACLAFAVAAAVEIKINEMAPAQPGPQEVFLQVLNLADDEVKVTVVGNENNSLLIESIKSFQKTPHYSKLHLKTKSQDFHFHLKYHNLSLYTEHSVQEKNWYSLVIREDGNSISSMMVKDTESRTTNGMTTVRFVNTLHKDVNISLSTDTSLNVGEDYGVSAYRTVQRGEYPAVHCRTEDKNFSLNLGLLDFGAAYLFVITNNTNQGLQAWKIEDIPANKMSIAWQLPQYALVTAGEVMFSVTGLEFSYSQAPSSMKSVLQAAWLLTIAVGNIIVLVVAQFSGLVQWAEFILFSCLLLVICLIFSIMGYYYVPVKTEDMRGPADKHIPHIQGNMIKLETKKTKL
In words: Binding affinity to human PepT2 in SKTP cells. In kind it is ADME, cell-based.
On to `CO/N=C(\C(=O)N[C@@H]1C(=O)N2C(C(=O)[O-])=C(C[N+]3(C)CCCC3)CS[C@H]12)c1csc(N)n1`, for which the inhibitory constant (Ki) is 11000 µM.
To `C[C@H](N)C(=O)N[C@@H](C)C(=O)N[C@@H](C)C(=O)O` belongs 18 µM; to `C[C@H](NC(=O)[C@@H](N)Cc1ccc(O)cc1)C(=O)O`, 4.4 µM; to `N[C@@H](Cc1c[nH]c2ccccc12)C(=O)NCC(=O)N[C@@H](Cc1ccc(O)cc1)C(=O)O`, 1.7 µM.
The result for `N[C@@H](CS)C(=O)NCC(=O)O` reads 29 µM; that for `CC(=O)N[C@@H](CCCCN)C(=O)N[C@@H](C)C(=O)O` (Ac-Lys-Ala-OH), 16 µM.
To `C[C@H](N)C(=O)N[C@H](C(=O)N[C@@H](C)C(=O)N[C@@H](C)C(=O)O)[C@@H](C)O` (H-ATAA-OH) belongs 550 µM; to `C[C@H](N)C(=O)N[C@@H](C)C(=O)N[C@@H](CC(=O)O)C(=O)O` (H-Ala-Ala-Asp-OH), 160 µM.
The molecule `C[C@H](N)C(=O)NCC(=O)O` (H-Ala-Gly-OH) had a Ki of 7 µM.
Take `C[C@H](N)C(=O)N[C@@H](CCCCN)C(=O)O` (H-Ala-Lys-OH): the inhibitory constant (Ki) worked out at 23 µM.
To `C[C@H](N)C(=O)N1CCC[C@H]1C(=O)O` (H-Ala-Pro-OH) belongs 12 µM.
To `C[C@H](N)C(=O)N[C@@H](CO)C(=O)O` (H-Ala-Ser-OH) belongs 6 µM.
`CCCC[C@H](NC(=O)[C@H](C)N)C(=O)O` (H-Ala-[Nle]-OH) came in with a Ki of 31 µM.
`C[C@H](N)C(=O)N[C@H](C)C(=O)O` (H-Ala-[dA]-OH) displayed a Ki of 270 µM.
`N[C@@H](CC(=O)O)C(=O)N[C@@H](CC(=O)O)C(=O)O` (H-Asp-Asp-OH): the Ki was 150 µM. This Ki is about 1.8-fold lower than that of the molecule before.
On to `C[C@H](NC(=O)CN)C(=O)O` (H-Gly-Ala-OH), for which the affinity, expressed as Ki, was 3.5 µM.
The result for `NCC(=O)NCC(=O)O` (H-Gly-Gly-OH) reads 54 µM.
The result for `NCCCC[C@H](NC(=O)[C@H](Cc1cnc[nH]1)NC(=O)CN)C(=O)O` (H-Gly-His-Lys-OH) reads 3100 µM; that for `NCC(=O)N[C@@H](Cc1c[nH]cn1)C(=O)O` (H-Gly-His-OH), 39 µM.
The result for `CC[C@H](C)[C@H](N)C(=O)N[C@@H](Cc1ccc(O)cc1)C(=O)O` (H-Ile-Tyr-OH) reads 8 µM; that for `CC[C@H](C)[C@H](N)C(=O)N[C@H](C(=O)N[C@@H](Cc1ccc(O)cc1)C(=O)O)C(C)C` (H-Ile-Val-Tyr-OH), 14 µM; that for `CC(C)C[C@H](N)C(=O)NCC(=O)NCC(=O)O` (H-Leu-Gly-Gly-OH), 18 µM.
In turn, `CC(C)C[C@H](N)C(=O)N1CCC[C@H]1C(=O)O` (H-Leu-Pro-OH) displayed an inhibition constant Ki of 10 µM.
`C[C@H](NC(=O)[C@@H](N)CCCCN)C(=O)O` (H-Lys-Ala-OH): the inhibitory constant (Ki) worked out at 41 µM.
To `CSCC[C@H](NC(=O)[C@@H](N)CCSC)C(=O)O` (H-Met-Met-OH) belongs 3 µM; to `N[C@@H](Cc1ccccc1)C(=O)NCC(=O)O` (H-Phe-Gly-OH), 14 µM.
To `N[C@@H](Cc1ccccc1)C(=O)N[C@@H](Cc1ccccc1)C(=O)O` (H-Phe-Phe-OH) belongs 37 µM; to `O=C(O)C[C@H](NC(=O)[C@@H]1CCCN1)C(=O)O` (H-Pro-Asp-OH), 2100 µM; to `O=C(O)CC[C@H](NC(=O)[C@@H]1CCCN1)C(=O)O` (H-Pro-Glu-OH), 2600 µM.
The molecule `NCCCC[C@H](NC(=O)[C@H](Cc1ccccc1)NC(=O)[C@@H]1CCCN1)C(=O)O` (H-Pro-Phe-Lys-OH) registered an inhibition constant Ki of 900 µM.
The result for `C[C@H](NC(=O)[C@@H](N)CO)C(=O)O` (H-Ser-Ala-OH) reads 7 µM; that for `C[C@H](NC(=O)[C@@H](N)Cc1c[nH]c2ccccc12)C(=O)O` (H-Trp-Ala-OH), 4 µM; that for `N[C@@H](Cc1c[nH]c2ccccc12)C(=O)N[C@@H](Cc1c[nH]c2ccccc12)C(=O)O` (H-Trp-Trp-OH), 0.8 µM.
To `N[C@@H](Cc1c[nH]c2ccccc12)C(=O)N[C@@H](Cc1c[nH]c2ccccc12)C(=O)N[C@@H](Cc1c[nH]c2ccccc12)C(=O)O` (H-Trp-Trp-Trp-OH) belongs 0.3 µM; to `N[C@@H](Cc1ccc(O)cc1)C(=O)N[C@@H](Cc1ccccc1)C(=O)O` (H-Tyr-Phe-OH), 9 µM.
The molecule `CC(C)[C@H](N)C(=O)N1CCC[C@H]1C(=O)O` (H-Val-Pro-OH) registered a Ki of 39 µM.
To `CC(C)[C@H](N)C(=O)N[C@@H](Cc1ccc(O)cc1)C(=O)O` (H-Val-Tyr-OH) belongs 2.5 µM; to `C[C@H](NC(=O)[C@@H](C)N)C(=O)O` (H-[dA]-Ala-OH), 130 µM.
`CC1(C)S[C@@H]2[C@H](NC(=O)[C@H](N)c3ccc(O)cc3)C(=O)N2[C@H]1C(=O)O` [AMOXICILLIN] showed an inhibition constant Ki of 430 µM.
The result for `CC1=C(C(=O)O)N2C(=O)[C@@H](NC(=O)[C@H](N)c3ccc(O)cc3)[C@H]2SC1` [CEFADROXIL] reads 3 µM; that for `Cn1nnnc1SCC1=C(C(=O)O)N2C(=O)[C@@H](NC(=O)[C@H](O)c3ccccc3)[C@H]2SC1` [CEFAMANDOLE], 2800 µM; that for `C=CC1=C(C(=O)O)N2C(=O)[C@@H](NC(=O)/C(=N\OCC(=O)O)c3csc(N)n3)[C@H]2SC1` [CEFIXIME], 2600 µM.
To `CO[C@@]1(NC(=O)CSCC#N)C(=O)N2C(C(=O)O)=C(CSc3nnnn3C)CS[C@@H]21` [CEFMETAZOLE] belongs 4300 µM.
Take `CO/N=C(\C(=O)N[C@@H]1C(=O)N2C(C(=O)O)=C(CSc3nc(C)c(CC(=O)O)s3)CS[C@H]12)c1csc(N)n1` [CEFODIZIME]: the affinity corresponds to a Ki of 9000 µM.
To `CO/N=C(\C(=O)N[C@@H]1C(=O)N2C(C(=O)O)=C(COC(C)=O)CS[C@H]12)c1csc(N)n1` [CEFOTAXIME] belongs 20000 µM.
`COCC1=C(C(=O)O)N2C(=O)[C@@H](NC(=O)/C(=N\OC)c3csc(N)n3)[C@H]2SC1` [CEFPODOXIME] gave a Ki of 31000 µM.
The result for `CO/N=C(\C(=O)N[C@@H]1C(=O)N2C(C(=O)O)=C(COC(N)=O)CS[C@H]12)c1ccco1` [CEFUROXIME] reads 12600 µM; that for `CC1=C(C(=O)O)N2C(=O)[C@@H](NC(=O)[C@H](N)c3ccccc3)[C@H]2SC1` [CEPHALEXIN ANHYDROUS], 75 µM.
To `O=C(Cc1cccs1)N[C@@H]1C(=O)N2C(C(=O)[O-])=C(C[n+]3ccccc3)CS[C@H]12` [CEPHALORIDINE] belongs 8500 µM.
The result for `CC(=O)OCC1=C(C(=O)O)N2C(=O)[C@@H](NC(=O)Cc3cccs3)[C@H]2SC1` [CEPHALOTHIN] reads 8300 µM; that for `CC(=O)OCC1=C(C(=O)O)N2C(=O)[C@@H](NC(=O)CSc3ccncc3)[C@H]2SC1` [CEPHAPIRIN SODIUM], 11100 µM.
For `Cc1onc(-c2ccccc2Cl)c1C(=O)N[C@@H]1C(=O)N2[C@@H]1SC(C)(C)[C@@H]2C(=O)O` [CLOXACILLIN], affinity was put at a Ki of 950 µM.
To `CC1(C)S[C@@H]2[C@H](NC(=O)C3(N)CCCCC3)C(=O)N2[C@H]1C(=O)O` [CYCLACILLIN] belongs 44 µM; to `Cc1onc(-c2c(Cl)cccc2Cl)c1C(=O)N[C@@H]1C(=O)N2[C@@H]1SC(C)(C)[C@@H]2C(=O)O` [DICLOXACILLIN], 420 µM; to `CC(=O)CCC(=O)O` [LEVULINIC ACID], 230 µM.
In turn, `C=N[C@@H](C(=O)N[C@@H]1C(=O)N2[C@@H]1SC(C)(C)[C@@H]2C(=O)O)c1ccccc1` [METAMPICILLIN] showed a Ki of 730 µM.
`Cc1onc(-c2ccccc2)c1C(=O)N[C@@H]1C(=O)N2[C@@H]1SC(C)(C)[C@@H]2C(=O)O` [OXACILLIN]: the inhibition constant (Ki) came to 3300 µM. Compared with the last molecule, the Ki is about 4.5-fold higher.
Molecule H-AATAA-OH displayed a Ki of 190 µM.
Molecule H-FATAA-OH displayed a Ki of 240 µM.

Usually Ki stands for a dissociation constant, usually derived from enzyme kinetics or from competition with a known ligand. A higher Ki goes with weaker binding.
